In the assay the target is Transient receptor potential cation channel subfamily V member 1 (Homo sapiens, UniProt Q8NER1). In words: FLIPR Assay. On the procedure: All compounds were tested over a 12-point one-third-log concentration range. Compound stocks, 10 mM, were prepared in DMSO, and diluted serially across a 384-well plate using a Bravo BenchCel workstation (Agilent Technologies, Santa Clara, Calif.).

What is called IC50 is the point on the concentration scale where inhibition reaches its midpoint.

Chain of Transient receptor potential cation channel subfamily V member 1 (Q8NER1 whole entry): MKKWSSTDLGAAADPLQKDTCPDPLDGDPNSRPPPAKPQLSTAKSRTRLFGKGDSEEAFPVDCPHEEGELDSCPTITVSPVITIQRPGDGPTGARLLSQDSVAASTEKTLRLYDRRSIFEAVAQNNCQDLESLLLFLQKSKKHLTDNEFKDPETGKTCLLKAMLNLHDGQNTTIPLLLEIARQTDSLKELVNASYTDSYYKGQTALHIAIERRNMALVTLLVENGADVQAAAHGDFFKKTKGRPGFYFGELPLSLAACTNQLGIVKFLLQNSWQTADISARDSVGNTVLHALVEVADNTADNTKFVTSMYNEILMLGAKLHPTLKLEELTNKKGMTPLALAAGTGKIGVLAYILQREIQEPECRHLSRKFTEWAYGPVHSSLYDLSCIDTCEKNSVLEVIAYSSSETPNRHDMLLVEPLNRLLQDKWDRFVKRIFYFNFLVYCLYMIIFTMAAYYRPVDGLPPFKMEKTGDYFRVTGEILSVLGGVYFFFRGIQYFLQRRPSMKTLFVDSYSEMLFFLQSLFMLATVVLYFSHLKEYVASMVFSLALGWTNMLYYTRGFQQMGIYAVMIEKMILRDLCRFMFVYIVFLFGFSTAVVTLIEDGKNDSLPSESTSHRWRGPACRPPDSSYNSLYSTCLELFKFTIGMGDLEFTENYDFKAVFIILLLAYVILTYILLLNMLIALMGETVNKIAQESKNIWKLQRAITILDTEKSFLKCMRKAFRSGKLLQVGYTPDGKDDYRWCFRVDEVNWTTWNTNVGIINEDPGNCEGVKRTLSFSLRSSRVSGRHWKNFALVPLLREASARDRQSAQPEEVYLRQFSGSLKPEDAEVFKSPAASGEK

On to `Cc1cccnc1N1CC=C(C(=O)Nc2ccc(C(=O)NC(F)(F)F)cc2)CC1` [US8802711, L], for which half-maximal inhibition (IC50) was put at 0.1 µM.

Source of the values: BindingDB's records for patent US8802711 (Abbvie, 2014).
